Source: patent publication US10570179B2, “Substituted urea depsipeptide analogs as activators of the CLPP endopeptidase” (priority 2016, dated 2020)
In brackets after ≈: the same amount, converted by molar mass. Like-named read-outs stand apart in the source and are kept apart here. Numbered stars: 1 amine (or outer) side, 2 acyl side, 3 side chain; on linkers, the order of the positions; unused ones are H or OH. Bridge positions count the residues as written; N and C are the ends. Square brackets hold non-standard residues; d marks the D form. Peptide text beside a SMILES is read from it. * marks the point of attachment. Phe(3,5-F2) = N[C@@H](Cc1cc(F)cc(F)c1)C(=O)O; NH(1-Me-indolin-5-yl) = CN1CCc2cc(N*)ccc21; X6 = O=C([C@@H]1CS(=O)(=O)CCN1[*:1])[*:2]; Morpholine(3S-CO) = O=C(O)[C@@H]1COCCN1; Phe(3-Me) = Cc1cccc(C[C@H](N)C(=O)O)c1; Pro(4S-Me) = C[C@@H]1CN[C@H](C(=O)O)C1; NH(4-Cl-2-F-phenyl) = Fc1cc(Cl)ccc1N*; Pro(4R-Me) = C[C@H]1CN[C@H](C(=O)O)C1; X1 = O=C([C@@H]1CSCCN1[*:1])[*:2]; Hyp = O=C(O)[C@@H]1C[C@@H](O)CN1; NH(4-Me-phenyl) = Cc1ccc(N*)cc1; aThr = C[C@H](O)[C@H](N)C(=O)O; Pip = O=C(O)[C@@H]1CCCCN1; CO = O=C([*:1])[*:2]

Tested on: S. aureus ATCC 29213
Assay: Minimal inhibitory concentration, microbroth dilution
Type: cell-based
Conditions: Staphylococcus aureus
Method in brief: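 Following CLSI M7-A7 microbroth dilution, twofold serial dilutions of compound (top final concentration 200 μM) were combined with an equal volume of broth inoculum at about 10^5 cfu/mL. Plates were incubated aerobically at 37 °C overnight, and the MIC was the lowest concentration preventing visible growth.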

[1] = ATCC29213, MIC, read-out: Minimal Inhibitory Concentrations (μM) S. aureus ATCC 29213
[2] = ATCC29213, read-out: Minimal Inhibitory Concentrations (μM) S. aureus ATCC 29213, MIC

Row | Compound | MIC [1] | MIC [2]
1 | Cc1cccc(C[C@H](NC(=O)Nc2ccc(Cl)cc2F)C(=O)N[C@@H]2C(=O)N3CCC[C@H]3C(=O)N3CCS(=O)(=O)C[C@H]3C(=O)N[C@@H](C)C(=O)N3C[C@H](C)C[C@H]3C(=O)O[C@H]2C)c1 [Compound 40, (S)-2-(3-(4-CHLORO-2-FLUOROPHENYL)UREIDO)-3-(M-TOLYL)-N-((6AS,12S,13S,15AS,17R,21S,23AR)-13,17,21-TRIMETHYL-2,2-DIOXIDO-6,11,15,20,23-PENTAOXOOCTADECAHYDRO-6H,11H,15H-DIPYRROLO[2,1-C:2′,1′-L][1,4]THIAZINO[3,4-I][1]OXA[4,7,10,13]TETRAAZACYCLOHEXADECIN-12-YL)PROPANAMIDE] ({NH(4-Cl-2-F-phenyl)-CO}-[Phe(3-Me)][aThr]P[X6]A[Pro(4R-Me)]; ester 2-C) | 1.25 µM (≈ 1.09 µg/mL) | –
2 | C[C@@H]1C[C@H]2C(=O)O[C@@H](C)[C@H](NC(=O)[C@H](Cc3cc(F)cc(F)c3)NC(=O)Nc3ccc4c(c3)CCN4C)C(=O)N3CCC[C@H]3C(=O)N3CCOC[C@H]3C(=O)N[C@@H](C)C(=O)N2C1 [Compound 32] ({NH(1-Me-indolin-5-yl)-CO}-[Phe(3,5-F2)][aThr]P[Morpholine(3S-CO)]A[Pro(4R-Me)]; ester 2-C) | – | 0.156 µM (≈ 0.133 µg/mL)
3 | Cc1ccc(NC(=O)N[C@@H](Cc2cccc(C)c2)C(=O)N[C@@H]2C(=O)N3CCC[C@H]3C(=O)N3CCCC[C@H]3C(=O)N[C@@H](C)C(=O)N3C[C@@H](C)C[C@H]3C(=O)O[C@H]2C)cc1 [Compound 45, (S)-3-(M-TOLYL)-2-(3-(P-TOLYL)UREIDO)-N-((2S,6S,8AS,14AS,20S,21S,23AS)-2,6,21-TRIMETHYL-5,8,14,19,23-PENTAOXOOCTADECAHYDRO-1H,5H,14H,19H-PYRIDO[2,1-I]DIPYRROLO[2,1-C:2′,1′-L][1]OXA[4,7,10,13]TETRAAZACYCLOHEXADECIN-20-YL)PROPANAMIDE] ({NH(4-Me-phenyl)-CO}-[Phe(3-Me)][aThr]P[Pip]A[Pro(4S-Me)]; ester 2-C) | – | 1.25 µM (≈ 0.982 µg/mL)
4 | Cc1ccc(NC(=O)N[C@@H](Cc2cccc(C)c2)C(=O)N[C@H]2COC(=O)[C@@H]3C[C@H](C)CN3C(=O)[C@H](C)NC(=O)[C@@H]3CCCCN3C(=O)[C@@H]3CCCN3C2=O)cc1 (stereo in doubt) [Compound 43, (S)—N-((2S,6S,8AS,14AS,20S,23AS)-2,6-DIMETHYL-5,8,14,19,23-PENTAOXOOCTADECAHYDRO-1H,5H,14H,19H-PYRIDO[2,1-I]DIPYRROLO[2,1-C:2′,1′-L][1]OXA[4,7,10,13]TETRAAZACYCLOHEXADECIN-20-YL)-3-(M-TOLYL)-2-(3-(P-TOLYL)UREIDO)PROPANAMIDE] | – | 2.5 µM (≈ 1.93 µg/mL)
5 | Cc1cccc(C[C@H](NC(=O)Nc2ccc(Cl)cc2F)C(=O)N[C@@H]2C(=O)N3C[C@H](O)C[C@H]3C(=O)N3CCSC[C@H]3C(=O)N[C@@H](C)C(=O)N3C[C@H](C)C[C@H]3C(=O)O[C@H]2C)c1 [Compound 41, (S)-2-(3-(4-CHLORO-2-FLUOROPHENYL)UREIDO)-N-((6AS,8R,12S,13S,15AS,17R,21S,23AR)-8-HYDROXY-13,17,21-TRIMETHYL-6,11,15,20,23-PENTAOXOOCTADECAHYDRO-6H,11H,15H-DIPYRROLO[2,1-C:2′,1′-L][1,4]THIAZINO[3,4-I][1]OXA[4,7,10,13]TETRAAZACYCLOHEXADECIN-12-YL)-3-(M-TOLYL)PROPANAMIDE] ({NH(4-Cl-2-F-phenyl)-CO}-[Phe(3-Me)][aThr][Hyp][X1]A[Pro(4R-Me)]; ester 2-C) | 0.31 µM (≈ 0.266 µg/mL) | –
6 | Cc1ccc(NC(=O)N[C@@H](Cc2cccc(C)c2)C(=O)N[C@@H]2C(=O)N3C[C@H](O)C[C@H]3C(=O)N3CCSC[C@H]3C(=O)N[C@@H](C)C(=O)N3C[C@H](C)C[C@H]3C(=O)O[C@H]2C)cc1 [Compound 42, (S)—N-((6AS,8R,12S,13S,15AS,17R,21S,23AR)-8-HYDROXY-13,17,21-TRIMETHYL-6,11,15,20,23-PENTAOXOOCTADECAHYDRO-6H,11H,15H-DIPYRROLO[2,1-C:2′,1′-L][1,4]THIAZINO[3,4-I][1]OXA[4,7,10,13]TETRAAZACYCLOHEXADECIN-12-YL)-3-(M-TOLYL)-2-(3-(P-TOLYL)UREIDO)PROPANAMIDE] ({NH(4-Me-phenyl)-CO}-[Phe(3-Me)][aThr][Hyp][X1]A[Pro(4R-Me)]; ester 2-C) | – | 1.25 µM (≈ 1.02 µg/mL)
